Test results reported in US11066709B2, “Methods for diagnosing and treating cancer by means of the expression status and mutational status of NRF2 and downstream target genes of said gene” (Genentech, Inc., priority 2016, dated 2021).
Each block holds one compound with its values, some of them ahead of it. Residues, ends and D or L forms follow the SMILES beside them. *: point of attachment. Cbz = O=C(OCc1ccccc1)*

How the values were obtained:
Assay type in all cases: cell-based
[1] = test system: reactive oxygen species (ROS); assay: ROS levels measured by H2DCF; settings: exogenous glutathione, dichlorofluorescein staining
Source text: FIG. 49 is bar graph showing reactive oxygen species (ROS) levels under indicated conditions as measured using 2′,7′-dichlorodihydrofluorescein diacetate (H2DCF). Error bars represent standard deviation from triplicate wells.
FIG. 53 is a histogram showing increasing ROS levels in response to shNRF2 and/or erastin, as measured by H2DCF.

[2] = test system: KEAP1 mutant and KEAP1 wild-type cell lines; assay: Colony formation in soft agar with or without NRF2 knockdown
Description: Representative areas of the plate were photographed. FIG. 44 is a series of bar graphs showing the quantified colony formation for each cell type and treatment group shown in FIG. 43. Error bars represent standard deviation from biological triplicate wells. FIG. 48 is a series of photographs showing A549 cells expressing NRF2sh10 shRNA plated into regular tissue culture dishes (top) or soft agar (bottom). Cells were treated with either vehicle or 500 ng/ml doxycycline, in the presence or absence of 2 mM N-acetyl cysteine (NAC).

[3] = test system: KEAP1 mutant cell lines; assay: Viability of KEAP1 wild-type versus KEAP1 mutant cell lines
Source text: FIG. 56A is a graph showing the IC50 of the glutaminase inhibitor BPTES on KEAP1 wild-type cell lines versus KEAP1 mutant cell lines.
FIG. 56B is a graph showing the viability of KEAP1 wild-type cell lines versus KEAP1 mutant cell lines in response to the glutaminase inhibitor BPTES.
FIG. 57A is a graph showing the IC50 of the […] buthionine sylphoximine (BSO) on KEAP1 wild-type cell lines versus KEAP1 mutant cell lines.
FIG. 57B is a graph showing the viability of KEAP1 wild-type cell lines versus KEAP1 mutant cell lines in response to BSO.

[4] = test system: three wild-type and three mutant KEAP1 NSCLC cell lines; assay: Proliferation of wild-type and mutant KEAP1 NSCLC cell lines
[5] = test system: KEAP1 mutant cell lines and KEAP1 wild-type cell lines; assay: Growth in soft agar (anchorage independent conditions) of a panel of NSCLC cell lines
Description: (§1) FIG. 62 is a series of photographs showing colony formation of KEAP1 mutant cell lines and KEAP1 wild-type cell lines grown in soft agar (anchorage independent conditions) in the presence of IGF1 R inhibitors linsitinib and NVP-AEW541, and in the presence or absence of glutathione.
(§2) Expression of IGF1 R was greater in KEAP1 mutant NSCLC cells relative to KEAP1 wild-type NSCLC cell lines. To test the effect of IGF1 R inhibition on KEAP1 mutant and KEAP1 wild-type cells, cell lines were treated with linsitinib, a potent and selective IGF1 R small molecule inhibitor. […] However, this compound was very potent at inhibiting colony growth of A549 cells in soft agar, having an IC50 of about 20 nM.

[6] = test system: A549 cells; assay: Colony growth of A549 cells in soft agar; settings: Homo sapiens, read-out: IC50 for inhibiting colony growth of A549 cells in soft agar
Description: as §1, §2

[7] = test system: full-length NRF2; assay: Effect of KEAP1 on NRF2 expression in transfected 293 cells (Western blot); settings: 293 cells transfected with NRF2 and KEAP1 plasmids
Description: FIG. 23 is a set of immunoblots showing the effect of NRF2 exon 2 and exon 2+3 deletions on KEAP1 interaction. 293 cells were transfected with plasmids expressing FLAG-NRF2, Δe2 FLAG-NRF2, Δe2+3 FLAG-NRF2 or HA-KEAP1. 48 hours after transfection, cells were lysed, and either lysates (top gel) or anti-FLAG immunoprecipitations were analyzed by Western blotting using the indicated antibodies.
Plasmid DNAs were transfected into cells using Lipofectamine 2000 (ThermoFisher) and OptiMEM (Gibco) as recommended by manufacturer protocol. Lysates were prepared 2-3 days post transfection. Expression plasmids used were pRK5.NRF2, pRK5.NRF2δe2, pRK5.NRF2δe2,3, pRK5.NRF2.FLAG and pRK5.KEAP1.HA.

SMILES: N[C@@H](CCC(=O)N[C@@H](CS)C(=O)NCC(=O)O)C(=O)O [reduced glutathione, glutathione]
- ROS levels [1]: reduce reactive oxygen (ROS) levels
- ability to form colonies in soft agar ([2]; all tested cell lines, 1 mM reduced glutathione): generally increased the ability of all tested cell lines to form colonies in soft agar
- rescue of the consequences of NRF2 knockdown ([2]; soft agar, dox-induced NRF2 shRNA): unable to rescue the consequences of NRF2 knockdown

SMILES: CCCCS(=N)(=O)CCC(N)C(=O)O (stereo not drawn) [BSO, buthionine sylphoximine]
- preferential toxicity for KEAP1 mutant cell lines [3]: did not display preferential toxicity

- IC50 [6]: ~20 nM
SMILES: C[C@]1(O)C[C@@H](c2nc(-c3ccc4ccc(-c5ccccc5)nc4c3)c3c(N)nccn32)C1 [linsitinib]
- effect on proliferation [4]: little effect on proliferation
- selectivity of growth inhibition for KEAP1 mutant cell lines [5]: selective growth inhibition in soft agar of this compound in KEAP1 mutant cell lines

SMILES: CC(C)C[C@@H](C=O)NC(=O)[C@H](CC(C)C)NC(=O)[C@H](CC(C)C)NC(=O)OCc1ccccc1 [MG132] (Cbz-Leu-Leu-Leu-aldehyde)
- inhibitory effect of KEAP1 on full-length NRF2 expression [7]: mostly abolished

SMILES: O=C(Cc1ccccc1)Nc1nnc(CCSCCc2nnc(NC(=O)Cc3ccccc3)s2)s1 [BPTES]
- preferential toxicity for KEAP1 mutant cell lines [3]: did not display preferential toxicity
